From PMC10709440, “High-throughput ligand profile characterization in novel cell lines expressing seven heterologous insect olfactory receptors for the detection of volatile plant biomarkers” (Scientific Reports, 2023)
Where two headings read alike, the source gives them in different places.

Experiments:
Drosophila OR98a = biological target: T1, Drosophila OR98a (Drosophila melanogaster, UniProt Q9VAZ3); experiment: Calcium ion fluorescence (GCaMP6) assay, OR98a stable HEK293 cell line; format: cell-based
T1 construct: expressed in transfected cells
T1 sequence (Q9VAZ3 1-397): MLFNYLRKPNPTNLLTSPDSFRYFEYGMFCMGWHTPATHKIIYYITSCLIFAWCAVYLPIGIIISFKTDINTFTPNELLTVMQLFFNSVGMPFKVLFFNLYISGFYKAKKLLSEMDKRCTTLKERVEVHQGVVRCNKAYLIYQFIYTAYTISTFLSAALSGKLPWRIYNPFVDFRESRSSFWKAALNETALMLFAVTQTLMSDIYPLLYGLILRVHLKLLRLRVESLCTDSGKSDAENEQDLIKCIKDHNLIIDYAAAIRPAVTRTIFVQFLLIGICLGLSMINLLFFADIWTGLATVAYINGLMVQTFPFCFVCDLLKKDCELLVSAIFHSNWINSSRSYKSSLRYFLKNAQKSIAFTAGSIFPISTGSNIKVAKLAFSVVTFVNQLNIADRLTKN
T1 sequence (Q9VNB5 1-486 partner): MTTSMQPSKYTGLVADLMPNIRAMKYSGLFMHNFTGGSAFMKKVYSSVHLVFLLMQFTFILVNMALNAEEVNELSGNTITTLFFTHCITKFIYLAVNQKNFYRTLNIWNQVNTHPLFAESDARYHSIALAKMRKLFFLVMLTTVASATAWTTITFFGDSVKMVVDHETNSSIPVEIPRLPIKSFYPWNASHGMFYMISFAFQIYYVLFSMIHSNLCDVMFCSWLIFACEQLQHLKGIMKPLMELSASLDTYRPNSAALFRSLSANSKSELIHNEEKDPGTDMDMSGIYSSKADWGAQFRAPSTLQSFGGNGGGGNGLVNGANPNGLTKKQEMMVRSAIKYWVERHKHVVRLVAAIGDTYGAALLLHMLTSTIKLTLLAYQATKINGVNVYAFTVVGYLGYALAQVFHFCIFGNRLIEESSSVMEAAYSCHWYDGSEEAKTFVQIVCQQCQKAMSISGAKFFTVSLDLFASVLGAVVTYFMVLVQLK
Procedure: (§1) These VUAA1 normalized ∆F values were used to compare the different receptors and ligands.
(§2) The concentration-dependent effect of the reference ligands on their cognate cell lines was examined in more detail. Twelve different ligand concentrations were measured on each cell line in an overall 0.01 μM to 100 μM concentration range with 5 repetitions with three technical replicates each time.
(§3) Twelve thousand to 18,000 cells were plated into each well of a black wall, transparent bottom 384-well microplate (Greiner) 48 h or 72 h before the measurements and were simultaneously treated with 1 μg/mL doxycycline. […] The plate has 24 columns, thus we could record responses in up to eight different cell lines in each plate. On the day of the experiment, the growth medium was replaced with 20 µL assay buffer/well (140 mM NaCl, 5 mM KCl, 2 mM CaCl2, 1 mM MgCl2, 5 mM HEPES-Na, 20 mM glucose, pH 7.3, 340 mOsm). […] Baseline fluorescence (F0) was recorded for 5 s, after which 7 µL VOC buffer (140 mM NaCl, 5 mM KCl, 2 mM CaCl2, 1 mM MgCl2, 5 mM HEPES-Na, 31 mM glucose, 0.1% DMSO, pH 7.3, 340 mOsm) was injected into each well in one row and the fluorescence response was recorded for an additional 30 s, at a rate of one read/sec. VOC solutions (VOC buffer with 4× concentration of the final measured VOC concentration, 9 µL/well was injected) were measured on the same wells in a second round with the same protocol. Each individual concentration of a specific VOC sample was recorded in three wells for the same cell line on the same microplate. The raw data were exported in xls file format, F0 and FMAX values, and the fluorescence intensity changes (∆F) were calculated in Excel (Microsoft) (Supplementary file Data summary.xlsx) using the following equation: ΔF=FMAX-F0/F0 (see also Fig. 1C). On each plate, we recorded the response of each cell line to 50 µM VUAA1. The average of these ∆F values of each cell line were used to calculate the VUAA1-normalized values for the rest of the plate, by dividing VOC response ∆F values by the average VUAA1 response ∆F value of the corresponding OR cell line. Each VOC-OR combination was measured three times as technical replicates. […] The average of these replicates were used as one ∆F and VUAA1-normalized ∆F in the following analysis.
(§4) In the next rows we tested the reference VOCs (or other VOCs known to activate the corresponding cell lines), in order to test if all cell lines are responsive. The remaining rows were used to test VOCs with unknown effect.
(§5) The recorded FMAX, F0, ∆F, VUAA1-normalized ∆F values, as well as the OR name, the name of the tested sample, and the final concentration for each well were copied into supplementary file Data summary.xlsx, that was used to summarize all the plates recorded. Here, the averages of the measurements were calculated for each receptor-VOC-concentration combination.

Drosophila OR85b = biological target: T2, Drosophila OR85b (Drosophila melanogaster, UniProt Q9VHQ7); experiment: Calcium ion fluorescence (GCaMP6) assay, OR85b stable HEK293 cell line; format: cell-based; conditions: for activation at 1 µM / activation at 10 µM / activation at 100 µM: HEK293, read-out: OR85b response (VUAA1-normalized response); for Average response: VUAA1-normalized response, mean of biological replicates
T2 construct: expressed in transfected cells
T2 sequence (Q9VHQ7 1-390): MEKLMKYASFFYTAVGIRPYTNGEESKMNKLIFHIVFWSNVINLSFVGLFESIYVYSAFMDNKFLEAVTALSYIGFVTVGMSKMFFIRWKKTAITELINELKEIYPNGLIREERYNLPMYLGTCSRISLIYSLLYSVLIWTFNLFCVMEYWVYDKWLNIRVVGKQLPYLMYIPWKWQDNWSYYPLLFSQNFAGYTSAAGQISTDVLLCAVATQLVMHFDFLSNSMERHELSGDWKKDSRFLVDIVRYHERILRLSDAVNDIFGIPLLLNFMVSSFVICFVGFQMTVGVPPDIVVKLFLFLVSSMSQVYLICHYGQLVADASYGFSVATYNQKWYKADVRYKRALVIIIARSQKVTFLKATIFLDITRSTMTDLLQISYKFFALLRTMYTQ
T2 sequence (Q9VNB5 1-486 partner): T1 sequence (Q9VNB5 1-486 partner)
Procedure: as §1, §2, §3, §4, §5

[1] = HEK293, read-out: Average response
[2] = HEK293, read-out: OR98a response (VUAA1-normalized response)
[3] = ligand concentration 1 (unit not given), threshold 0.05, below shown as 0
[4] = ligand concentration 10 (unit not given), threshold 0.05, below shown as 0
[5] = ligand concentration 100 (unit not given), threshold 0.05, below shown as 0
[6] = concentration 1, normalized fluorescence change, values below 0.05 threshold given as 0
[7] = concentration 10, normalized fluorescence change, values below 0.05 threshold given as 0
[8] = concentration 100, normalized fluorescence change, values below 0.05 threshold given as 0
[9] = HEK293, read-out: OR98a Average response (VUAA1-normalized)

C=C1CCC2CC1C2(C)C (stereo not drawn) [beta-pinene]
activation at 1 µM (Drosophila OR98a; [1]): 19% | activation at 10 µM (Drosophila OR98a; [1]): 17% | activation at 100 µM (Drosophila OR98a; [1]): 1.89% | activation at 1 µM (Drosophila OR98a; [2]): 19% | activation at 10 µM (Drosophila OR98a; [2]): 17% | activation at 100 µM (Drosophila OR98a; [2]): 0% | DF norm AVERAGE OR98a (Drosophila OR98a; [3]): 0.1942 | DF norm AVERAGE OR98a (Drosophila OR98a; [4]): 0.1655 | DF norm AVERAGE OR98a (Drosophila OR98a; [5]): 0 | activation at 1 µM (Drosophila OR85b): 0% | activation at 10 µM (Drosophila OR85b): 10% | activation at 100 µM (Drosophila OR85b): 9% | Average response (Drosophila OR85b; OR85b cell line, cc. 1 µM): 0.00 | Average response (Drosophila OR85b; OR85b cell line, cc. 10 µM): 0.10 | Average response (Drosophila OR85b; OR85b cell line, cc. 100 µM): 0.09 | DF norm AVERAGE OR85b (Drosophila OR85b; [3]): 0 | DF norm AVERAGE OR85b (Drosophila OR85b; [4]): 0.09683 | DF norm AVERAGE OR85b (Drosophila OR85b; [5]): 0.0913

Cc1cccc(O)c1 [3-methylphenol]
activation at 1 µM (Drosophila OR98a; [1]): 4.63% | activation at 10 µM (Drosophila OR98a; [1]): 4.61% | activation at 100 µM (Drosophila OR98a; [1]): 6% | activation at 1 µM (Drosophila OR98a; [2]): 0% | activation at 10 µM (Drosophila OR98a; [2]): 0% | activation at 100 µM (Drosophila OR98a; [2]): 6% | DF norm AVERAGE OR98a (Drosophila OR98a; [6]): 0 | DF norm AVERAGE OR98a (Drosophila OR98a; [7]): 0 | DF norm AVERAGE OR98a (Drosophila OR98a; [8]): 0.05828 | activation at 1 µM (Drosophila OR85b): 0% | activation at 10 µM (Drosophila OR85b): 0% | activation at 100 µM (Drosophila OR85b): 0% | Average response (Drosophila OR85b; OR85b cell line, cc. 1 µM): 0.0267 | Average response (Drosophila OR85b; OR85b cell line, cc. 10 µM): 0.0173 | Average response (Drosophila OR85b; OR85b cell line, cc. 100 µM): 0.02 | DF norm AVERAGE OR85b (Drosophila OR85b; [6]): 0 | DF norm AVERAGE OR85b (Drosophila OR85b; [7]): 0 | DF norm AVERAGE OR85b (Drosophila OR85b; [8]): 0

OCCc1ccccc1 [phenethyl alcohol]
activation at 1 µM (Drosophila OR98a; [1]): 4% | activation at 10 µM (Drosophila OR98a; [1]): 5% | activation at 100 µM (Drosophila OR98a; [1]): 12% | activation at 1 µM (Drosophila OR98a; [9]): 4% | activation at 10 µM (Drosophila OR98a; [9]): 5% | activation at 100 µM (Drosophila OR98a; [9]): 12% | OR98a response (VUAA1-normalized) at 1 μM (Drosophila OR98a; OR98a cell line, VOC concentration 1 μM): 0.00 | OR98a response (VUAA1-normalized) at 10 μM (Drosophila OR98a; OR98a cell line, VOC concentration 10 μM): 0.05 | OR98a response (VUAA1-normalized) at 100 μM (Drosophila OR98a; OR98a cell line, VOC concentration 100 μM): 0.12 | DF norm AVERAGE OR98a (Drosophila OR98a; [3]): 0 | DF norm AVERAGE OR98a (Drosophila OR98a; [4]): 0.05123 | DF norm AVERAGE OR98a (Drosophila OR98a; [5]): 0.122 | OR85b response (VUAA1-normalized) at 1 μM (Drosophila OR85b; OR85b cell line, VOC concentration 1 μM): 0.10 | OR85b response (VUAA1-normalized) at 10 μM (Drosophila OR85b; OR85b cell line, VOC concentration 10 μM): 0.0758 | OR85b response (VUAA1-normalized) at 100 μM (Drosophila OR85b; OR85b cell line, VOC concentration 100 μM): 0.00 | Average response (Drosophila OR85b; OR85b cell line, cc. 1 µM): 0.10 | Average response (Drosophila OR85b; OR85b cell line, cc. 10 µM): 0.0758 | Average response (Drosophila OR85b; OR85b cell line, cc. 100 µM): 0.04 | DF norm AVERAGE OR85b (Drosophila OR85b; [3]): 0.09884 | DF norm AVERAGE OR85b (Drosophila OR85b; [4]): 0.07579 | DF norm AVERAGE OR85b (Drosophila OR85b; [5]): 0
